Reference: article PMC10111413 (ACS Infectious Diseases, 2023)

Assays:
Assay type in all cases: cell-based
P. aeruginosa PAO1 = conditions: CLSI microbroth dilution, Mueller Hinton broth, 18 h at 37 °C, visual read-out, three technical replicates
Method: (§1) The antibacterial activities of relacidine A (3a) and B (4a), along with diastereomers 3b and 4b–d and relacidamide (5), were assessed using a standard microbroth dilution assay to establish minimum inhibitory concentration (MIC) values against a panel of Gram-negative bacteria (Table 1). The MIC values measured for synthetic relacidine A (3a) and B (4a) agree well with those previously published.[9] […] Relacidine A (3a) and B (4a), as well as relacidamide (5), were further tested against a panel of colistin-resistant A. baumannii clinical isolates, which confirmed their ability to prevent the growth of colistin-resistant isolates (Supplemental Table S2). […] Also of interest was the finding that while relacidine B (4a) induced <1% hemolysis, a substitution of either the L-Ala or L-Ser to D-Ala or D-Ser increased hemolytic activity to 8–12%. […] The greater hydrolytic stability of relacidine B would appear to be attributable to the increased steric bulk of the Ala side chain next to the ester linkage (compared with the methylene of Gly in relacidine A), which may hinder the nucleophilic attack of water at the ester carbonyl.
(§2) Colistin sulfate was purchased from Activate Scientific. Kanamycin monosulfate was purchased from MP Biomedicals. E. coli ATCC 25922, S. aureus USA300 (ATCC BAA1717), and K. pneumoniae ATCC 13883 belong to the American Type Culture Collection (ATCC). P. aeruginosa PAO1 was kindly provided by L.H.C. Quarles Van Ufford of Utrecht University, Utrecht, The Netherlands. E. coli ATCC 25922 MCR-1 was transfected in-house using the pGDP2-MCR1 plasmid kindly provided by Yong-Xin Li of The University of Hong Kong, Hong Kong, China. Sheep blood agar plates (ref. PB5039A) were purchased from Thermo Scientific. Tryptic soy broth (ref. 02-200-500) was purchased from Scharlab. Mueller-Hinton broth (ref. X927.1) was purchased from Carl Roth. Polypropylene 96-wells plates (ref. 3879) were purchased from Corning.
(§3) MICs were determined according to Clinical and Standards Laboratory Institute (CLSI) guidelines. Blood agar plates were inoculated with glycerol stocks of E. coli ATCC 25922, K. pneumoniae ATCC 13883, P. aeruginosa PAO1, and S. aureus USA300. The inoculated agar plates were then incubated for 16 h at 37 °C. Individually grown colonies were subsequently used to inoculate 5 mL aliquots of tryptic soy broth (TSB) that were then incubated at 37 °C with shaking at 220 rpm. E. coli 25922 MCR-1 glycerol stock was used to inoculate 5 mL of TSB supplemented with kanamycin that was then incubated for 16 h at 37 °C with shaking at 220 rpm. The next day, the culture was diluted 100-fold in TSB supplemented with kanamycin and incubated at 37 °C with shaking at 220 rpm. In parallel, the lipopeptide antibiotic DMSO stocks to be assessed were serially diluted with Mueller Hinton broth (MHB) in polypropylene 96-well plates (50 μL in each well). Colistin sulfate stocks were dissolved in water before being diluted with MHB. Aliquots of the inoculated TSB were incubated until an OD600 of around 0.5 was reached. The bacterial suspensions were then diluted with MHB (2 × 10^5 cfu mL^–1) and added to the microplates containing the test compounds (50 μL to each well). The well plates were sealed with an adhesive membrane, and after 18 h of incubation at 37 °C with shaking at 600 rpm, the wells were visually inspected for bacterial growth. MIC values reported are based on three technical replicates and defined as the lowest concentration of the compound that prevented visible growth of bacteria.

E. coli ATCC 25922 mcr-1 = conditions: CLSI microbroth dilution, Mueller Hinton broth, 18 h at 37 °C, visual read-out, three technical replicates; mcr-1 colistin resistance plasmid
Method: as §1, §2, §3

K. pneumoniae ATCC 13883 = conditions: CLSI microbroth dilution, Mueller Hinton broth, 18 h at 37 °C, visual read-out, three technical replicates
Method: as §1, §2, §3

S. aureus USA300 = conditions: CLSI microbroth dilution, Mueller Hinton broth, 18 h at 37 °C, visual read-out, three technical replicates
Method: as §1, §2, §3

E. coli ATCC 25922 = conditions: CLSI microbroth dilution, Mueller Hinton broth, 18 h at 37 °C, visual read-out, three technical replicates
Method: as §1, §2, §3

sheep red blood cells = test: Hemolytic assay; conditions: 128 μg/mL, 1 h at 37 °C, sheep red blood cells in PBS with 0.002% Tween20, read-out 415 nm, relative to 0.1% Triton X-100, triplicate
Method: Figure S2. Hemolytic activity of compounds 3a-5 at 128 µg/mL and 1 h incubation against sheep red […]
under the same conditions.
Experiments were performed in triplicate and Triton X-100 used as a positive control. Red blood cells from defibrinated sheep blood obtained from Thermo Fisher were centrifuged (400 g for 15 min at 4°C) and washed with Phosphate-Buffered Saline (PBS) containing 0.002% Tween20 (buffer) five times. Then, the red blood cells were normalized to obtain a positive control read-out between 2.5 and 3.0 at 415 nm to stay within the linear range with the maximum sensitivity. A serial dilution of the compounds (128 – 1 µg/mL, 75 µL) was prepared in a 96-well polypropylene plate. The outer border of the plate was filled with 75 µL buffer. Each plate contained a positive control (0.1% Triton-X final concentration, 75 µL) and a negative control (buffer, 75 µL) in triplicate. The normalized blood cells (75 µL) were added and the plates were incubated at 37 °C for 1 h while shaking at 500 rpm. A flat - bottom polystyrene plate with 100 µL buffer in each well was prepared. […] The values obtained from a read-out at 415 nm were corrected for background (negative control) and transformed to a percentage relative to the positive […]

## colistin [reference compound]
P. aeruginosa PAO1
  MIC P. aeruginosa PAO1: 1 µg/mL
E. coli ATCC 25922 mcr-1
  MIC E. coli ATCC 25922 mcr-1: 4 µg/mL
K. pneumoniae ATCC 13883
  MIC K. pneumoniae ATCC 13883: 0.25 to 0.5 µg/mL
S. aureus USA300
  MIC S. aureus USA300: >32 µg/mL
E. coli ATCC 25922
  MIC E. coli ATCC 25922: 1 µg/mL
Sheep red blood cells
  hemolysis: < 0.1%
